The values below come from US20060094059A1, “Methods for identifying new drug leads and new therapeutic uses for known drugs” (Odyssey Thera, Inc., priority 2004, published 2006).

Experiment [1] has as its system colon adenocarcinoma (LoVo) cells. As to the kind of experiment: MTT proliferation assay, colon. The following applies: Homo sapiens, Tumor Cell Colon (LoVo), 120 hours, read-out: Anti-proliferative IC-50. In kind it is cell-based, Human.
In experiment [2] the test system is phospho-ERK (MAPK) in the presence of VEGF. As to the kind of experiment: Immunofluorescence assay phospho-ERK + VEGF. As to conditions: FIG. 3G, compared with the vehicle alone. In kind it is cell-based, human. The method, then:
Immunofluorescence was performed on drug-treated cells to assess the post-translational modification status of proteins involved in the pathways of interest. We constructed assays designed to measure the phosphorylation status of key signaling proteins in the absence and presence of a growth factor stimulus. A drug capable of blocking or inhibiting the pathway leading to the signaling protein would in principle cause a decrease in the phosphorylation of that signaling protein in response to the selected growth factor. Such a change in phosphorylation status could be measured by a decrease in fluorescence in the presence of the drug. […]
HEK293T cells were seeded at a density of 7,500/well in poly-D-lys coated, blackwalled 96 well plate (Greiner). […] Phosphorylated ERK was detected by incubating the fixed cells with rabbit phospho-ERK (T202/Y204)-specific antibodies (Cell Signaling Technologies) followed by Alexa488 conjugated goat anti-rabbit antibody (Molecular Probes). […] Fluorescence images were acquired on a Discovery-1 imaging station (Molecular Devices) as described above.
Background fluorescence due to nonspecific binding by the secondary antibody was established with the use of cells that were incubated with BSA/PBS and without primary antibodies. […]

Turning to `O=C(Nc1ccc([N+](=O)[O-])cc1Cl)c1cc(Cl)ccc1O` [Niclosamide], the IC50 in experiment [1] was 0.45 µM. Moreover, in experiment [2], the “level of phospho-ERK (intensity of the fluorescence)” value is recorded as “decrease in the level of phospho-ERK”.
